{"source": "ChEMBL document CHEMBL4340507", "about": "“Identification of an indol-based multi-target kinase inhibitor through phenotype screening and target fishing using inverse virtual screening approach” (Eur J Med Chem, 2019)", "key": {"[1]": {"system": "MCF7", "assay": "Antiproliferative activity against human MCF7 cells assessed as decrease in cell viability measured after 72 hrs by MTT assay", "type": "functional, cell-based", "settings": "MCF7, 72 h"}, "[2]": {"system": "PC-3", "assay": "Antiproliferative activity against human PC3 cells assessed as decrease in cell viability measured after 72 hrs by MTT assay", "type": "functional, cell-based", "settings": "PC-3, 72 h"}, "[3]": {"target": "SRSF protein kinase 1 (Homo sapiens, UniProt Q96SB4)", "sequence (Q96SB4 whole entry, the tested form may be a part)": "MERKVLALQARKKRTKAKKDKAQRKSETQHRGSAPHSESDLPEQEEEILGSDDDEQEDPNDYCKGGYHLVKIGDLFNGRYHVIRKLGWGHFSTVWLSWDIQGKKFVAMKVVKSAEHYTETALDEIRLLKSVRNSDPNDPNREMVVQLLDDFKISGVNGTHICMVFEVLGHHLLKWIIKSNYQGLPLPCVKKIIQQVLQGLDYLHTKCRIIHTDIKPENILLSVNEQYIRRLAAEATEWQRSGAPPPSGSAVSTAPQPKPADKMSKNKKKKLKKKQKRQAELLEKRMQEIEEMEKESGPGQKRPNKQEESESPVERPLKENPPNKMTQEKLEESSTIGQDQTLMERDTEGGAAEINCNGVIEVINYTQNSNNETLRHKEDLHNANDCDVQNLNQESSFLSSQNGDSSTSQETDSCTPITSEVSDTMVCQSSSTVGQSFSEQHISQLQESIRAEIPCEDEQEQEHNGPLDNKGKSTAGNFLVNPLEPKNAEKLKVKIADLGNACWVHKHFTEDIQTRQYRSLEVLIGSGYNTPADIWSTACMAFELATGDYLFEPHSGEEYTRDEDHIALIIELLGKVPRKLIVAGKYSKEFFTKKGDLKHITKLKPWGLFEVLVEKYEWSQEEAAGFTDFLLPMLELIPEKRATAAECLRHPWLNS", "assay": "Inhibition of recombinant human full-length N-terminal GST-His6-fused SRPK1 (M1 to S655 residues) expressed in Sf9 insect cells using RS-peptide as substrate measured after 60 mins in presence of [gamma-33P]-ATP by scintillation counting method"}, "[4]": {"target": "Receptor tyrosine-protein kinase erbB-4 (Homo sapiens, UniProt Q15303)", "assay": "Inhibition of recombinant human N-terminal GST-His6-fused ERBB4 C-terminal domain (R676 to V1307 residues) expressed in Sf9 cells using Poly(Glu:Tyr)4:1 as substrate measured after 60 mins in presence of [gamma-33P]-ATP by scintillation counting method"}, "[5]": {"target": "Dual specificity protein kinase CLK1 (Homo sapiens, UniProt P49759)", "sequence (P49759 whole entry, the tested form may be a part)": "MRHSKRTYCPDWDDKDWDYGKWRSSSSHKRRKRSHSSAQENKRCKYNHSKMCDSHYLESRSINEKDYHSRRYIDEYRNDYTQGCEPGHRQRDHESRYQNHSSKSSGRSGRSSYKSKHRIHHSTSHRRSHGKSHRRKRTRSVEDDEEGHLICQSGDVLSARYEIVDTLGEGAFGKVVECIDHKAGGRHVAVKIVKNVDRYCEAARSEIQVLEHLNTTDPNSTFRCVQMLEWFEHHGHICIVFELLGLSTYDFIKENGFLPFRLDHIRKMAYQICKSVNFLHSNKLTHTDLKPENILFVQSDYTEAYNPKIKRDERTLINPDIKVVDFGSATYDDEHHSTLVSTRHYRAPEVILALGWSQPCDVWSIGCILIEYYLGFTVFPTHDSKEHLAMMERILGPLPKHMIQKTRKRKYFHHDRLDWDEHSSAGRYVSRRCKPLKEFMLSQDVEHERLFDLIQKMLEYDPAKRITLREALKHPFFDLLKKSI", "assay": "Inhibition of recombinant human full-length N-terminal GST-His6-fused CLK1 (M1 to I484 residues) expressed in Sf9 cells using RS-peptide as substrate measured after 60 mins in presence of [gamma-33P]-ATP by scintillation counting method"}, "[6]": {"target": "T1, RAC-beta serine/threonine-protein kinase (Homo sapiens, UniProt P31751)", "T1 sequence (P31751 whole entry, the tested form may be a part)": "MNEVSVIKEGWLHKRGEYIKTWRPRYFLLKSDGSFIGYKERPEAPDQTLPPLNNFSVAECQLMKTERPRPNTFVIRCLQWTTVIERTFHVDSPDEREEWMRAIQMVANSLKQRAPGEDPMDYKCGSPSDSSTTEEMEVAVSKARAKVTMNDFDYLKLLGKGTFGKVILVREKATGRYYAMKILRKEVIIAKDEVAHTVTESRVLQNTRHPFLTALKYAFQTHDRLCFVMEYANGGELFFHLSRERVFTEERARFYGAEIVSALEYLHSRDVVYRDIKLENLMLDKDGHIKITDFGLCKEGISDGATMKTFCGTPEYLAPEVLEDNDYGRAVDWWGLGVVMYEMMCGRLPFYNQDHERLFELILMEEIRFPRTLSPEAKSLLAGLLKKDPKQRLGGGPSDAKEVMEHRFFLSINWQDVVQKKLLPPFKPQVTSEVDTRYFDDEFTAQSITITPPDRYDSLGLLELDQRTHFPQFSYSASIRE", "assay": "Inhibition of recombinant human N-terminal GST-His6-fused AKT2 C-terminal domain (A107 to E481 residues) expressed in Sf9 insect cells using GSK3(14-27)tide as substrate measured after 60 mins in presence of [gamma-33P]-ATP by scintillation counting method"}, "[7]": {"target": "Fibroblast growth factor receptor 2 (Homo sapiens, UniProt P21802)", "assay": "Inhibition of recombinant human N-terminal GST-His6-fused FGFR2 C-terminal domain (R400 to T822 residues) expressed in Sf9 insect cells using TRK-C derived peptide as substrate measured after 60 mins in presence of [gamma-33P]-ATP by scintillation counting method"}, "[8]": {"target": "Vascular endothelial growth factor receptor 2 (Homo sapiens, UniProt P35968)", "sequence (P35968 whole entry, the tested form may be a part)": "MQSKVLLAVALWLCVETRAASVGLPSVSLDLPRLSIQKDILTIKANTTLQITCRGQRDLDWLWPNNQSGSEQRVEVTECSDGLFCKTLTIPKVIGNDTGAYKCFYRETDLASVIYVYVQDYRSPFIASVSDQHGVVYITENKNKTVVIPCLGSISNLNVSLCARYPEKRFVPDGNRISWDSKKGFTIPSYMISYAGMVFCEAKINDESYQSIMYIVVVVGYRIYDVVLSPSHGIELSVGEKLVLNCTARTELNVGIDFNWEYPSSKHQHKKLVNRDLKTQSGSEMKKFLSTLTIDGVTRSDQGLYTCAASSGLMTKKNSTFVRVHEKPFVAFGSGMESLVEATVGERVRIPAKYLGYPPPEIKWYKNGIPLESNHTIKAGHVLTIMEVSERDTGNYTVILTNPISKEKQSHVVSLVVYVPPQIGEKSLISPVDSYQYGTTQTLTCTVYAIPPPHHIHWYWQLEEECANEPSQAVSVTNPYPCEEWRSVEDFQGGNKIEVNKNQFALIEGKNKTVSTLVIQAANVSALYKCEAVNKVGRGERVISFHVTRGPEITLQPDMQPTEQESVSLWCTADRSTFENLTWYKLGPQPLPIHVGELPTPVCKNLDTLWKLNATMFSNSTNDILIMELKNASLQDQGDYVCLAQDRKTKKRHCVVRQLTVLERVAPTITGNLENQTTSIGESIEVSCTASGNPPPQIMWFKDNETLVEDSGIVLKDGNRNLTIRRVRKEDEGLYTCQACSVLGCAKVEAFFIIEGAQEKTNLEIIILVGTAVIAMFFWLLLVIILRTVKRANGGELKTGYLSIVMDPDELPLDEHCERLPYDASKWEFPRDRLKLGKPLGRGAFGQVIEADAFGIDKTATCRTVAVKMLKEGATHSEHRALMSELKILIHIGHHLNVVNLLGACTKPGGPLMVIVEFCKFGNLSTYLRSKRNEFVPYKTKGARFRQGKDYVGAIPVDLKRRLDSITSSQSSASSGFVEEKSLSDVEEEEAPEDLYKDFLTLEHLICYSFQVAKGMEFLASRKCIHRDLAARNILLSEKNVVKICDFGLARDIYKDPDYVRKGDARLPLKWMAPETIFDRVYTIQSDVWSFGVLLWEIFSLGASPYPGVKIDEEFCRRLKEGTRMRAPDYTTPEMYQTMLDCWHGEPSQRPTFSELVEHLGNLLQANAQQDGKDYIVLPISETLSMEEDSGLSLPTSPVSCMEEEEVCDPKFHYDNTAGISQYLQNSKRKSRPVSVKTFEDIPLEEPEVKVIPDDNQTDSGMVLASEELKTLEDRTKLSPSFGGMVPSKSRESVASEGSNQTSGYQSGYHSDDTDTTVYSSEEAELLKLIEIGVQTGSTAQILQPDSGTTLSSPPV", "assay": "Inhibition of recombinant human N-terminal GST-fused VEGFR2 C-terminal domain (D807 to V1356 residues) expressed in Sf9 insect cells using Poly(Glu:Tyr)4:1 as substrate measured after 60 mins in presence of [gamma-33P]-ATP by scintillation counting method"}, "[9]": {"target": "Platelet-derived growth factor receptor alpha (Homo sapiens, UniProt P16234)", "assay": "Inhibition of recombinant human wild-type N-terminal GST-His6-fused PDGFR-alpha C-terminal domain (Q551 to L1089 residues) expressed in Sf9 insect cells using TRK-C derived peptide as substrate measured after 60 mins in presence of [gamma-33P]-ATP by scintillation counting method"}, "[10]": {"target": "Mitogen-activated protein kinase 3 (Homo sapiens, UniProt P27361)", "assay": "Inhibition of recombinant human full-length N-terminal GST-His6 fused ERK1 (M1 to P379 residues) expressed in Escherichia coli using RBER-CHKtide as substrate measured after 60 mins in presence of [gamma-33P]-ATP by scintillation counting method"}, "[11]": {"target": "Tyrosine-protein kinase ABL1 (Homo sapiens, UniProt P00519)", "assay": "Inhibition of recombinant human wild-type N-terminal GST-His6-fused ABL1 internal domain (P118 to S535 residues) expressed in Sf9 insect cells using Poly(Ala,Glu,Lys,Tyr)6:2:5:1 as substrate measured after 60 mins in presence of [gamma-33P]-ATP by scintillation counting method"}, "[12]": {"target": "Dual specificity mitogen-activated protein kinase kinase 2 (Homo sapiens, UniProt P36507)", "sequence (P36507 whole entry)": "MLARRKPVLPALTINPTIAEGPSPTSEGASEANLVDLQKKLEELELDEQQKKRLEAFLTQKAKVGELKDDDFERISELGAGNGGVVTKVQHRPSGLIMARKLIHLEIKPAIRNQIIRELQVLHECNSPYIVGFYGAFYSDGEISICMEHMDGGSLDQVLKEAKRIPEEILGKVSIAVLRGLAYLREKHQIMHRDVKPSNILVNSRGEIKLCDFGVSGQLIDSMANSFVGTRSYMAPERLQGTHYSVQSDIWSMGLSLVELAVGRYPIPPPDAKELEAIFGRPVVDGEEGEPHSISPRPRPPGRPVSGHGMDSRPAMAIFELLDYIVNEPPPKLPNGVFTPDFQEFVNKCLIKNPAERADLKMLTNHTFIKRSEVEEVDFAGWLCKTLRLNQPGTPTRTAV", "assay": "Inhibition of recombinant human MEK2 measured after 60 mins in presence of [gamma-33P]-ATP by scintillation counting method"}, "[13]": {"target": "Wee1-like protein kinase (Homo sapiens, UniProt P30291)", "sequence (P30291 whole entry, the tested form may be a part)": "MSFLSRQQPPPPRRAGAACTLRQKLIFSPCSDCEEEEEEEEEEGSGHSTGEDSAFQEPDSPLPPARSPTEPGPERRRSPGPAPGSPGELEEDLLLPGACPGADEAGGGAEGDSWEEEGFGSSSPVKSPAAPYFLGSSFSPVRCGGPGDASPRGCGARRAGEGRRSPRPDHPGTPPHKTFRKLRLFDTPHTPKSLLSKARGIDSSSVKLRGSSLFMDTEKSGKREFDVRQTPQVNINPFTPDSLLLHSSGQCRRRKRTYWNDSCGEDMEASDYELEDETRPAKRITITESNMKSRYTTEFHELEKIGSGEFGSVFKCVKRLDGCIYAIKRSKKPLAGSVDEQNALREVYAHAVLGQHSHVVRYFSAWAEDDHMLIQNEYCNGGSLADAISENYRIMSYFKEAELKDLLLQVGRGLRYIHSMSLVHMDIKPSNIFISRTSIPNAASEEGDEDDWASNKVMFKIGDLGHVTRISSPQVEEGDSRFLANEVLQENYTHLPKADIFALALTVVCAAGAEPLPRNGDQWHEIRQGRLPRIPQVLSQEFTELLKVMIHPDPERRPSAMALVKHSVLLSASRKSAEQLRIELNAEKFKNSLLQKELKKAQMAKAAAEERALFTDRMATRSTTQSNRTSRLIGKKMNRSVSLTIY", "assay": "Inhibition of recombinant human N-terminal GST-His6-fused WEE1 C-terminal domain (Q36 to Y432 residues) expressed in Sf9 cells using Poly(Ala,Glu,Lys,Tyr)6:2:5:1 as substrate measured after 60 mins in presence of [gamma-33P]-ATP by scintillation counting method"}, "[14]": {"target": "Mitogen-activated protein kinase 14 (Homo sapiens, UniProt Q16539)", "assay": "Inhibition of recombinant human full-length untagged p38-alpha (M1 to S360 residues) expressed in Escherichia coli cells using recombinant ATF2 as substrate measured after 60 mins in presence of [gamma-33P]-ATP by scintillation counting method"}, "[15]": {"target": "T1, RAC-beta serine/threonine-protein kinase", "assay": "Inhibition of recombinant human full-length N-terminal GST-His6-fused AKT2 (M1 to E481 residues) expressed in Sf9 insect cells using GSK3-derived peptide as substrate measured after 60 mins in presence of [gamma-33P]-ATP by scintillation counting method"}, "[16]": {"target": "Casein kinase II subunit alpha (Homo sapiens, UniProt P68400)", "assay": "Inhibition of recombinant human full-length N-terminal GST-fused CK2-alpha1 (M1 to Q391 residues) expressed in Sf9 insect cells using casein as substrate measured after 60 mins in presence of [gamma-33P]-ATP by scintillation counting method"}, "[17]": {"target": "Focal adhesion kinase 1 (Homo sapiens, UniProt Q05397)", "sequence (Q05397 whole entry, the tested form may be a part)": "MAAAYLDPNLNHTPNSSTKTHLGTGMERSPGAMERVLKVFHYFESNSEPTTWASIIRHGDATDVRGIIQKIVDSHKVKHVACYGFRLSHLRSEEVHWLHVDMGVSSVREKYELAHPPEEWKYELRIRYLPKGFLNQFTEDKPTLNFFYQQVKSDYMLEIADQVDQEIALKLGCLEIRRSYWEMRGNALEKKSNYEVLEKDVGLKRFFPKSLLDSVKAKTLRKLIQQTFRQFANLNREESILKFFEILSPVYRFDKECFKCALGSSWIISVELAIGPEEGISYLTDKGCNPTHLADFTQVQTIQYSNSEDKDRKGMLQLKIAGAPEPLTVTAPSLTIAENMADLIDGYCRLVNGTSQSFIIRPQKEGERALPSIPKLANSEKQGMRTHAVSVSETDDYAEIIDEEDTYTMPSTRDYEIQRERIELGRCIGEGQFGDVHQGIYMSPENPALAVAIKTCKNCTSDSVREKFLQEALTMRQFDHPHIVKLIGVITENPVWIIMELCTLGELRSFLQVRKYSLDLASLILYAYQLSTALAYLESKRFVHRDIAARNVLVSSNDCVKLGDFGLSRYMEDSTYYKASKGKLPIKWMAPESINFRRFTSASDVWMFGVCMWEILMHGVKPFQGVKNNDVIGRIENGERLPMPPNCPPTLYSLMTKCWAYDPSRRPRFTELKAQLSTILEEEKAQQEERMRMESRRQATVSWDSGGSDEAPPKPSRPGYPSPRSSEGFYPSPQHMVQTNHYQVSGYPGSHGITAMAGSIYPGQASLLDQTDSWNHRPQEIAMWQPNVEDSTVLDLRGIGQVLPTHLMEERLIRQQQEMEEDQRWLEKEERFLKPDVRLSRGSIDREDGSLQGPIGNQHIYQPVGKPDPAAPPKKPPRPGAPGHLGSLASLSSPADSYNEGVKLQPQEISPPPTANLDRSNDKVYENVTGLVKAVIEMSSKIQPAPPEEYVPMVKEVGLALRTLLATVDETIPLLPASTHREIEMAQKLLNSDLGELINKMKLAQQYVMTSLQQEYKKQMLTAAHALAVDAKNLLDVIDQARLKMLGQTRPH", "assay": "Inhibition of recombinant human N-terminal GST-fused FAK (2 to 1052 residues) expressed in Sf9 insect cells using Poly(Glu/Tyr)4:1 as substrate measured after 60 mins in presence of [gamma-33P]-ATP by scintillation counting method"}, "[18]": {"system": "HeLa", "assay": "Cell cycle arrest in human HeLa cells assessed as accumulation at G0/G1-phase at 0.1 to 0.6 uM after 24 hrs by propidium iodide staining-based FACS analysis", "type": "functional"}, "[19]": {"system": "HeLa", "assay": "Cell cycle arrest in human HeLa cells assessed as decrease in accumulation at G2-phase at 0.1 to 0.6 uM after 24 hrs by propidium iodide staining-based FACS analysis", "type": "functional"}, "[20]": {"system": "HeLa", "assay": "Induction of ROS generation in human HeLa cells at 0.1 to 0.6 uM measured after 24 hrs by H2DC-DA probe-based FACS analysis", "type": "functional, cell-based"}, "[21]": {"system": "IEC-6", "assay": "Induction of ROS generation in rat IEC-6 cells at 0.1 to 0.6 uM measured after 24 hrs by H2DCF-DA staining-based FACS analysis", "type": "cell-based", "settings": "iec-6, 24 h"}, "[22]": {"system": "IEC-6", "assay": "Down regulation of ERK expression in rat IEC-6 cells at 0.1 to 0.6 uM after 24 hrs by FACS analysis", "type": "ADME, cell-based", "settings": "iec-6, 24 h"}, "[23]": {"system": "HeLa", "assay": "Inhibition of ERK phosphorylation in human HeLa cells at 0.1 to 0.6 uM after 24 hrs by FACS analysis", "type": "cell-based"}, "[24]": {"assay": "Inhibition of ERK phosphorylation in rat IEC-6 cells at 0.1 to 0.6 uM after 24 hrs by FACS analysis", "type": "cell-based", "settings": "iec-6, 24 h"}, "[25]": {"system": "HeLa", "assay": "Induction of apoptosis in human HeLa cells assessed as effect on PARP level at 0.1 to 0.6 uM after 24 hrs by FACS analysis", "type": "functional, cell-based"}}, "note": "Activity calls are given as the source filed them. The calls are words filed in the database; no cut-off is given here."}
{"compound": "CN(CCc1ccc(-c2ccccc2)cc1)Cc1cn(C)c2ccc(C(=O)Nc3ccc(F)cc3)cc12", "values": [{"measurement": "IC50", "setting": "[1]", "value": 2160, "unit": "nM"}, {"measurement": "IC50", "setting": "[2]", "value": 16.9, "unit": "µM"}, {"measurement": "IC50", "setting": "[3]", "value": 7.8, "unit": "µM"}, {"measurement": "IC50", "setting": "[4]", "value": 7.9, "unit": "µM"}, {"measurement": "IC50", "setting": "[5]", "value": 13, "unit": "µM"}, {"measurement": "IC50", "setting": "[6]", "value": 21, "unit": "µM"}, {"measurement": "IC50", "setting": "[7]", "value": 23, "unit": "µM"}, {"measurement": "IC50", "setting": "[8]", "value": 31, "unit": "µM"}, {"measurement": "IC50", "setting": "[9]", "value": 48, "unit": "µM"}, {"measurement": "IC50", "setting": "[10]", "value": 65, "unit": "µM"}, {"measurement": "IC50", "setting": "[11]", "value": 69, "unit": "µM"}, {"measurement": "IC50", "setting": "[12]", "value": 74, "unit": "µM"}, {"measurement": "IC50", "setting": "[13]", "value": 79, "unit": "µM"}, {"measurement": "IC50", "setting": "[14]", "value": 88, "unit": "µM"}, {"measurement": "IC50", "setting": "[15]", "value": "> 100", "unit": "µM"}, {"measurement": "IC50", "setting": "[16]", "value": "> 100", "unit": "µM"}, {"measurement": "IC50", "setting": "[17]", "value": "> 100", "unit": "µM"}, {"measurement": "Activity", "setting": "[18]", "value": "Active"}, {"measurement": "Activity", "setting": "[19]", "value": "Active"}, {"measurement": "Activity", "setting": "[20]", "value": "Active"}, {"measurement": "Activity", "setting": "[21]", "value": "Toxic"}, {"measurement": "Activity", "setting": "[22]", "value": "Non-Toxic"}, {"measurement": "inhibition", "setting": "[23]", "value": "Active"}, {"measurement": "inhibition (INH)", "setting": "[24]", "value": "Not Active"}, {"measurement": "Activity", "setting": "[25]", "value": "inactive"}]}
